US5491146A, “Hydroxylated erythro-hydroxynonyladenines and related analogs” (Cypros Pharmaceutical Corporation, priority 1994, dated 1996)
Like-named read-outs stand apart in the source and are kept apart here.

What was measured:
[1] = target: T1, calf intestinal ADA (Type III, Sigma Chemical Company) (Bos taurus, UniProt P56658); assay: Testing for ADA inhibition, direct spectrophotometric assay at 265 nm; format: biochemical; conditions: for Ki: calf intestinal ADA, 30° C.; for inhibition of ADA activity (in words): tested as in Example 2
T1 construct: purchased Sigma Chemical Company Type III; host or cells: calf intestine
T1 sequence (P56658 1-363): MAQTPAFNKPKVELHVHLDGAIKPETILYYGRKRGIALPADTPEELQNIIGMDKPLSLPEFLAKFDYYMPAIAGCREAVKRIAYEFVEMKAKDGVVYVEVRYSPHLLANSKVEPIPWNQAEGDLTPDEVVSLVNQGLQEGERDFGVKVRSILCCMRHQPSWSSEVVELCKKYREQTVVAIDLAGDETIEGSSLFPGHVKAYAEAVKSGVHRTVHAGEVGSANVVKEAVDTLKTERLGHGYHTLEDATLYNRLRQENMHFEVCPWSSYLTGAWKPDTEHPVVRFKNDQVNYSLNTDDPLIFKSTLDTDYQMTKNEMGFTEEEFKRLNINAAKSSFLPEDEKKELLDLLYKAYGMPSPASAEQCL
Description: Compounds [10] (the 9-hydroxy analog), [23] (the 8-hydroxy analog), and [14] (the 8,9-dihydroxy analog) were tested for ADA inhibition activity, using calf intestinal ADA (Type III, Sigma Chemical Company) measured at 30° C. by direct spectrophotometric assays at 265 nm, as described in Harriman et al 1992.
Several of the analogs described in Example 3 were tested for inhibition of the adenosine deaminase (ADA) enzyme, using the procedures described in Example 2.

[2] = tested on: intact hearts from male Sprague-Dawley rats; assay: Langendorf isolated perfused heart, simulated ischemia 20 minutes then reoxygenation; design: species or system rat; conditions: for % fibr.: isolated rat hearts, 10 min drug treatment, 20 min ischemia; for # fibrillating: number of hearts fibrillating out of Total #
From the text: The tests carried out by Dr. Rodgers used a widely-used protocol known as a "Langendorf" preparation, which involves removing intact hearts from sacrificed lab animals (male Sprague-Dawley rats were used), and perfusing the hearts with liquids containing controlled quantities (or deficits) of oxygen and glucose for fixed periods of time. […] The left atrium is filled at 15 cm H2 O pressure, and the left ventricle ejects into a buffer-filled column against a pressure which equates to 72 mm Hg, except during ischemic periods. The perfusate was Krebs-Henseleit buffer with HCO3 (25 mM), Ca^++ (2.2 mM), and glucose (10 mM). […] Pefusate and ambient temperatures were held at 37° C. and the hearts were allowed to beat spontaneously.
Following stabilization and treatment, the hearts were subjected to simulated ischemia for 20 minutes; no oxygen was added to the perfusate during this period. When the ischemic period ended, oxygen was again added to the perfusion buffer, and the following parameters were measured over a period of 10 minutes:
LVPP--left ventricular pulse pressures (time-dependent pressures, calculated as peak pressure minus diastolic pressure, in mm Hg, millimeters of mercury column)
LVEDP--left ventricular end diastolic pressure (i.e, time-dependent pressures as the ventricle relaxed during diastolic filling, in mm Hg)
CFR--coronary flow rate (mL/min)
HR--spontaneous heartbeat rate (beats/min)
ECG--electrocardiogram (surface potential, in mV)

[3] = mammalian bloodstream; cited from earlier work
[4] = target: adenosine deaminase (ADA); conditions: read-out: Ki value (ADA); background statement; cited from earlier work
[5] = animals; cited from earlier work
[6] = read-out: Ki values (ADA inhibition)
[7] = isolated rat hearts after ischemia
[8] = read-out: Ki value (ADA inhibition)

SMILES | Ki [1, 6] | inhibition of ADA activity (in words) [1] | % fibr. [2] | # fibrillating [2] | Ki [1, 8] | further results
COC(=O)CCCCC[C@H]([C@H](C)O)n1cnc2c(N)ncnc21 [Compound 31] | 5 nM | potency in the desired range | – | – | – | –
CCCCCC[C@H]([C@H](C)O)n1cnc2c(N)ncnc21 (relative stereo) [EHNA, erythro-hydroxynonyladenine] | – | – | 14% | 1 | – | LVPP (left ventricular pulse pressure) after ischemia [2, 7]: moderate increase; coronary flow rate after ischemia [2, 7]: moderate increase; incidence of fibrillation (in words) [2, 7]: reduced the incidence of fibrillation; metabolism and clearance from bloodstream [3]: metabolized and cleared from the mammalian bloodstream fairly rapidly; Ki [4]: ~4 nM
C[C@H](O)[C@@H](CCCCCCOC(=O)c1ccccc1)n1cnc2c(N)ncnc21 [Compound 25, 9-[9-Benzoyloxy-2(S)-hydroxy-3(R)-nonyl]adenine] | – | potency in the desired range | – | – | – | –
C=CCCCC[C@H]([C@H](C)O)n1cnc2c(N)ncnc21 [Compound 32, 9-[2(S)-hydroxy-3(R)-non-8-enyl]adenine] | – | potency in the desired range | – | – | – | Ki ([1]; Ki values (ADA inhibition)): 2.5 nM
C[C@H](O)[C@@H](CCCCC(O)CO)n1cnc2c(N)ncnc21 (single isomer, unassigned) [Compound 14] | 6 nM | effective inhibitor of ADA activity | – | – | 6 nM | –
C[C@H](O)[C@@H](CCCCCCO)n1cnc2c(N)ncnc21 [Compound 10] | 3.4 nM | effective inhibitor of ADA activity | 11% | 1 | 3.4 nM | LVPP (left ventricular pulse pressure) after ischemia [2, 7]: moderate increase; coronary flow rate after ischemia [2, 7]: moderate increase; incidence of fibrillation (in words) [2, 7]: reduced the incidence of fibrillation; LVEDP (left ventricular end diastolic pressure), protection against muscle stiffening ([2]; isolated rat hearts after ischemia, compared with EHNA): significantly higher level of protection against muscle stiffening than unmodified EHNA
CC(O)CCCC[C@H]([C@H](C)O)n1cnc2c(N)ncnc21 (single isomer, unassigned) [Compound 23] | 11 nM | shown to inhibit ADA activity | – | – | 11 nM | –
OC[C@H]1O[C@@H](n2cnc3c2NC=NC[C@H]3O)C[C@@H]1O [dCF, deoxycoformycin] | – | – | – | – | – | toxic side effects [5]: serious and unpredictable toxic side effects in some animals
C[C@H](O)[C@@H](CCCCCCCl)n1cnc2c(N)ncnc21 [Compound 29, 9-[9-chloro-2(S)-hydroxy-3(R)-nonyl]adenine] | 3.7 nM | potency in the desired range | – | – | – | –
CCN(CC)C(=S)SSC(=S)N(CC)CC [Disulfiram, disulfiram] | – | – | 40% | 2 | – | –
